Assay results as given in ChEMBL document CHEMBL4382204 (Eur J Med Chem, 2018).
Activity calls are given as the source filed them. The calls are words filed in the database; no cut-off is given here.

How the values were obtained:
[1] = test system: MEG-01; assay: Induction of apoptosis in human MEG01 cells assessed as cleaved caspase-3 level up to 0.3 uM after 24 hrs by immunoblotting analysis; assay type: functional, cell-based
[2] = target: T1, Bcr/Abl fusion protein (Homo sapiens) (UniProt P00519+P11274); settings: BaF3
Description: Inhibition of wild type BCR/ABL (unknown origin) transfected in mouse BAF3 cells assessed as growth inhibition after 72 hrs by CCK8 assay

[3] = test system: BaF3; assay: Antitumor activity against mouse BAF3 cells expressing BCR/ABL T315I mutant allografted in po dosed nu/nu mouse assessed as tumor growth inhibition administered daily via gavage for 13 days; assay type: functional, organism-based
[4] = test system: MEG-01; assay: Antiproliferative activity in human MEG01 cells after 72 hrs by CCK8 assay; assay type: functional; settings: MEG-01, 72 h
[5] = MRT (0 to t) in Sprague-Dawley rat at 10 mg/kg, po by LC-MS/MS analysis; assay type: ADME, organism-based; settings: in vivo
[6] = Antiproliferative activity in CHO cells after 72 hrs by CCK8 assay; assay type: cell-based, Cricetulus griseus; settings: chinese hamster
[7] = test system: K562; assay: Induction of apoptosis in human K562 cells assessed as cleaved PARP level up to 0.3 uM after 24 hrs by immunoblotting analysis; assay type: functional, cell-based
[8] = target: Proto-oncogene tyrosine-protein kinase Src (Homo sapiens) (UniProt P12931); assay: Inhibition of wild type C-terminal FLAG-tagged human TEL fused SRC (unknown origin) transfected in mouse BAF3 cells assessed as growth inhibition after 72 hrs by CCK8 assay; assay type: cell-based
Sequence of Proto-oncogene tyrosine-protein kinase Src (Homo sapiens) (P12931 2-536 limits assumed): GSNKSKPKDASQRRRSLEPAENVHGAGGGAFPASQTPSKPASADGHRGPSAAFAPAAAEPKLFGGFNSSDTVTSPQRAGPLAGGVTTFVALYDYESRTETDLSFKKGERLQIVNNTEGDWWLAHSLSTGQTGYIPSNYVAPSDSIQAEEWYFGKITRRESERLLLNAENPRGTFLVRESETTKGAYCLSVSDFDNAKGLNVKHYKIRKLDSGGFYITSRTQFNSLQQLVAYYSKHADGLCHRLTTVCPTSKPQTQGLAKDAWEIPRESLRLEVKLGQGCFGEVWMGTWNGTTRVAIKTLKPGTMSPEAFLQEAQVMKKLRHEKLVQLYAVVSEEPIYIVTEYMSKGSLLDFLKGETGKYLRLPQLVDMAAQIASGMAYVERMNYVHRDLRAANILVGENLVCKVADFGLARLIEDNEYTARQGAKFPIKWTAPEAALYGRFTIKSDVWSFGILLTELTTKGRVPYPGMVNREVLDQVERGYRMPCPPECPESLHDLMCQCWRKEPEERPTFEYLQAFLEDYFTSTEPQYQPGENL

[9] = test system: MEC1; assay: Antiproliferative activity in human MEC1 cells after 72 hrs by CCK8 assay; assay type: functional; settings: MEC1, 72 h
[10] = Tmax in Sprague-Dawley rat at 1 mg/kg, iv by LC-MS/MS analysis; assay type: ADME, organism-based; settings: in vivo
[11] = target: T1, Bcr/Abl fusion protein (Homo sapiens); assay: Inhibition of BCR/ABL in human KU812 cells assessed as inhibition of ErK phosphorylation up to 0.3 uM after 1 hr by immunoblotting analysis; assay type: cell-based
[12] = target: Discoidin domain-containing receptor 2 (Homo sapiens) (UniProt Q16832); assay: Inhibition of BCR fused DDR2 (unknown origin) transfected in mouse BAF3 cells assessed as growth inhibition after 72 hrs by CCK8 assay; assay type: cell-based
Sequence of Discoidin domain-containing receptor 2 (Homo sapiens) (Q16832 whole entry, the tested form may be a part): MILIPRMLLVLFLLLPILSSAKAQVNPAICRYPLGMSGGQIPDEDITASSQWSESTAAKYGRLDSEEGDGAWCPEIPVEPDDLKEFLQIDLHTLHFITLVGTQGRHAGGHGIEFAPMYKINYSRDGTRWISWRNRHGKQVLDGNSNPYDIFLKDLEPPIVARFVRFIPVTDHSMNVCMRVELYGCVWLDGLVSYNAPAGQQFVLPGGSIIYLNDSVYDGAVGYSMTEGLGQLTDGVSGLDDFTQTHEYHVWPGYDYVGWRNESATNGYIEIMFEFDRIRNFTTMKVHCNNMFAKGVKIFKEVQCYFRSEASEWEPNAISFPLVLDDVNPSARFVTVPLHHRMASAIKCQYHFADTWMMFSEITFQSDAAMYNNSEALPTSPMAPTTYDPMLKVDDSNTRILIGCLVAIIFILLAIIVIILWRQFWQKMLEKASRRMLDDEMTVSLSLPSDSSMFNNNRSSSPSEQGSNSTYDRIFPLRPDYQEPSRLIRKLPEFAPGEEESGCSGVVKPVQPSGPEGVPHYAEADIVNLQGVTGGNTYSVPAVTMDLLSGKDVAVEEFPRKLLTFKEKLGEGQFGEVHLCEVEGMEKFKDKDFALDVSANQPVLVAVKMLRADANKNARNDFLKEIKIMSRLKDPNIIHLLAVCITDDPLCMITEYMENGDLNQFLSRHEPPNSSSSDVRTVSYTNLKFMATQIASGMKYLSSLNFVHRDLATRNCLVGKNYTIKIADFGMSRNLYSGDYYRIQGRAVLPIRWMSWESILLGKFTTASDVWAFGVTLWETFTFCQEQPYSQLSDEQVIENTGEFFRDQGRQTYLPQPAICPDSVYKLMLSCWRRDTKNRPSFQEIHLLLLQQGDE

[13] = target: T1, Bcr/Abl fusion protein (Homo sapiens); assay: Inhibition of BCR/ABL in human K562 cells assessed as inhibition of CrkL phosphorylation up to 0.3 uM after 1 hr by immunoblotting analysis; assay type: cell-based
[14] = target: Fibroblast growth factor receptor 2 (Homo sapiens) (UniProt P21802); assay: Inhibition of wild type C-terminal FLAG-tagged human TEL fused FGFR2 (unknown origin) transfected in mouse BAF3 cells assessed as growth inhibition after 72 hrs by CCK8 assay; assay type: cell-based
Sequence of Fibroblast growth factor receptor 2 (Homo sapiens) (P21802 22-821 limits assumed): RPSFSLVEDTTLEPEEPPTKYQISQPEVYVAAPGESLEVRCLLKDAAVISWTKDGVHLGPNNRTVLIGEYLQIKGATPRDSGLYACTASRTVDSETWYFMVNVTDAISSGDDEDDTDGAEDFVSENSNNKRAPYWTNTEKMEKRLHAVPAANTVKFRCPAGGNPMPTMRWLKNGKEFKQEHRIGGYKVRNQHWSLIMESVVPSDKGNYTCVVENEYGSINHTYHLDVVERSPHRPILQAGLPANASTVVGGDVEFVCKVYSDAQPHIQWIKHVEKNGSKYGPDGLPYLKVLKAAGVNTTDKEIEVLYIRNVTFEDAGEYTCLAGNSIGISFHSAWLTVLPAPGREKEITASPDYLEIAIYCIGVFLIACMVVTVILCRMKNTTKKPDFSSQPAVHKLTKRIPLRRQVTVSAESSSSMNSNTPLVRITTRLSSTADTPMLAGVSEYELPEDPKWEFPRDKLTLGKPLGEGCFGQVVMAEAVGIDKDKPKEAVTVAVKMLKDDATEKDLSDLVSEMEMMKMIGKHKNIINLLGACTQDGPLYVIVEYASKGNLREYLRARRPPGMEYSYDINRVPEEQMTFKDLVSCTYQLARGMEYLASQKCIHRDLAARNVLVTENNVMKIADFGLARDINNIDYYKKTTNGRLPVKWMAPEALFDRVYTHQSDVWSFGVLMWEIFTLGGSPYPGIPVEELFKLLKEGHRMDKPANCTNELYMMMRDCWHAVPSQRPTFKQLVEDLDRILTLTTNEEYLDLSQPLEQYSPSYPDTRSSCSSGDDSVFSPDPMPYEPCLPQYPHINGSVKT

[15] = target: Macrophage colony-stimulating factor 1 receptor (Homo sapiens) (UniProt P07333); assay: Inhibition of wild type C-terminal FLAG-tagged human TEL fused CSF1R (unknown origin) transfected in mouse BAF3 cells assessed as growth inhibition after 72 hrs by CCK8 assay; assay type: cell-based
Sequence of Macrophage colony-stimulating factor 1 receptor (Homo sapiens) (P07333 whole entry, the tested form may be a part): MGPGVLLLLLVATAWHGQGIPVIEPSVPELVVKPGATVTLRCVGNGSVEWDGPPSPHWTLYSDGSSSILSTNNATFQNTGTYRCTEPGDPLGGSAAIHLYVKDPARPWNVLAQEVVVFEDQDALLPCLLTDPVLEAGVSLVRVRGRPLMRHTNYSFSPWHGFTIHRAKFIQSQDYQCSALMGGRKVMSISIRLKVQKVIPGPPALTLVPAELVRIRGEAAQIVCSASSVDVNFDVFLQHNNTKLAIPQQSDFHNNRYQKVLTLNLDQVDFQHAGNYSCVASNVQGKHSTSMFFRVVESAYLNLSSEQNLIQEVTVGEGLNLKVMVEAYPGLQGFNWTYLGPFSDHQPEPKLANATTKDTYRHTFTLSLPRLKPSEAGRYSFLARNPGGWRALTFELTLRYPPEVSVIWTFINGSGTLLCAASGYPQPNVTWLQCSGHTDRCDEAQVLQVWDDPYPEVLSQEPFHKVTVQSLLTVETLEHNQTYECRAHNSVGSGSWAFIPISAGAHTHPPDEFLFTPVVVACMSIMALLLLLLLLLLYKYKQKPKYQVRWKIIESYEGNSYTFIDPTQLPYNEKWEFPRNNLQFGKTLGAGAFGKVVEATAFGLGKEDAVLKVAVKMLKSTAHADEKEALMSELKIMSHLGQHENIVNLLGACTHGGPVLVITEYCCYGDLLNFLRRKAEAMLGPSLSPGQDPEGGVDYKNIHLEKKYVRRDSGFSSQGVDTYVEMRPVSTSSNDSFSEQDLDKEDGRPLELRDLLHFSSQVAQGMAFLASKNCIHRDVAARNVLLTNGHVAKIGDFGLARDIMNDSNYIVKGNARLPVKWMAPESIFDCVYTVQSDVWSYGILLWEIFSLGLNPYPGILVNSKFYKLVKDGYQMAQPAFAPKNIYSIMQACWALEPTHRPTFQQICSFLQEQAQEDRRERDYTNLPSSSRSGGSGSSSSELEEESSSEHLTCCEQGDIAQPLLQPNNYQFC

[16] = target: Mast/stem cell growth factor receptor Kit (Homo sapiens) (UniProt P10721); assay: Inhibition of wild type C-terminal FLAG-tagged human TEL fused cKIT (unknown origin) transfected in mouse BAF3 cells assessed as growth inhibition after 72 hrs by CCK8 assay; assay type: cell-based
Sequence of Mast/stem cell growth factor receptor Kit (Homo sapiens) (P10721 whole entry, the tested form may be a part): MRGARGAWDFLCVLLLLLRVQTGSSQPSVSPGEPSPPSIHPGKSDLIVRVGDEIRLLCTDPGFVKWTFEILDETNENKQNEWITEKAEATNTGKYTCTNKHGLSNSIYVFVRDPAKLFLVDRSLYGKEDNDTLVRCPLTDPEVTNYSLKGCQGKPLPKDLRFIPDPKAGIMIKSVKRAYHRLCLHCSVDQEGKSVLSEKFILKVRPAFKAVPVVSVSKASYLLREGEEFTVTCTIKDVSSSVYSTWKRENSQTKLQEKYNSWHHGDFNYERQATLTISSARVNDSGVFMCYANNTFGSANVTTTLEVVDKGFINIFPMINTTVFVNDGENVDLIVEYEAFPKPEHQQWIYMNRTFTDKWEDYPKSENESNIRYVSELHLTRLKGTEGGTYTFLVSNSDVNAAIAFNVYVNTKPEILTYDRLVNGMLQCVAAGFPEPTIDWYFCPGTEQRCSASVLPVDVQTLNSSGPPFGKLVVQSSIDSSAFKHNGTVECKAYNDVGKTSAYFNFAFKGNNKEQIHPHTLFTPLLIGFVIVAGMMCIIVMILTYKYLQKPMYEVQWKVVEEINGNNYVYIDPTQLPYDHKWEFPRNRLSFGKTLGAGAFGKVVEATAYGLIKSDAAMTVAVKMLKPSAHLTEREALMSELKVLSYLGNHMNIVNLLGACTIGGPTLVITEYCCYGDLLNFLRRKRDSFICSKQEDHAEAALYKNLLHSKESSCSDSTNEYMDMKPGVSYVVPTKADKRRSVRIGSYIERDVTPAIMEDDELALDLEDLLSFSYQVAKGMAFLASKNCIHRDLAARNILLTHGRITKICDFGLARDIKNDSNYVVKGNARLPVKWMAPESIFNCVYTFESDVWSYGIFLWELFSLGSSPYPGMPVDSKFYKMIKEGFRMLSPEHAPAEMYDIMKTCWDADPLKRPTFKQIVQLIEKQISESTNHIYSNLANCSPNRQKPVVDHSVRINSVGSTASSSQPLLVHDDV

[17] = target: T1, Bcr/Abl fusion protein (Homo sapiens); assay: Inhibition of BCR/ABL in human K562 cells assessed as inhibition of STAT5 phosphorylation up to 0.3 uM after 1 hr by immunoblotting analysis; assay type: cell-based
[18] = target: T2, Tyrosine-protein kinase ABL1 (Homo sapiens, UniProt P00519, T315I); assay: Inhibition of inactive wild type His-tagged ABL T315I mutant (229 to 500 residues) (unknown origin) expressed in baculovirus infected sf9 cells assessed as reduction in autophosphorylation preincubated for 60 mins followed by ATP addition measured after 8 hrs by ADP-Glo assay
[19] = target: Cytoplasmic tyrosine-protein kinase BMX (Homo sapiens) (UniProt P51813); assay: Inhibition of wild type C-terminal FLAG-tagged human TEL fused BMX (unknown origin) transfected in mouse BAF3 cells assessed as growth inhibition after 72 hrs by CCK8 assay; assay type: cell-based
Sequence of Cytoplasmic tyrosine-protein kinase BMX (Homo sapiens) (P51813 whole entry, the tested form may be a part): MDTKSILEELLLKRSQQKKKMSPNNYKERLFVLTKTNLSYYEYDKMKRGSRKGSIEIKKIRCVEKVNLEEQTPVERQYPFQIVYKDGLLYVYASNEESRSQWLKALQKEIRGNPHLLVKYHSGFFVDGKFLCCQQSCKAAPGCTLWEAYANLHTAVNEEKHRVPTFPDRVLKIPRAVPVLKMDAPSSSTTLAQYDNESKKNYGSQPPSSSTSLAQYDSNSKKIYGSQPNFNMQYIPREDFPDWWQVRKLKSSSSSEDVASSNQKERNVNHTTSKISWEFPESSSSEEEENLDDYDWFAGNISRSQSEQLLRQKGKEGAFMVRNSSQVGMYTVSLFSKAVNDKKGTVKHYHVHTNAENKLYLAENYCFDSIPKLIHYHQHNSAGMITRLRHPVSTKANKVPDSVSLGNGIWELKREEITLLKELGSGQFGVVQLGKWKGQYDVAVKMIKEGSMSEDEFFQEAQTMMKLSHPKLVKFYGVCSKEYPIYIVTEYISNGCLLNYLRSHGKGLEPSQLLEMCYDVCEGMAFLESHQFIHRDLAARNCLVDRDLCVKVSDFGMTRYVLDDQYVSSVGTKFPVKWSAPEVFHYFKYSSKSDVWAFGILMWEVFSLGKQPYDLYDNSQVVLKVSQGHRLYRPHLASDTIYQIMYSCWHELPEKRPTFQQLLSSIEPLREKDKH

[20] = AUC (0 to infinity) in Sprague-Dawley rat at 1 mg/kg, iv by LC-MS/MS analysis; assay type: ADME, organism-based; set-up: dose 1 mg/kg, time infinity, route intravenous; settings: in vivo
[21] = target: T1, Bcr/Abl fusion protein (Homo sapiens); assay: Inhibition of BCR/ABL in human MEG01 cells assessed as inhibition of ErK phosphorylation up to 0.3 uM after 1 hr by immunoblotting analysis; assay type: cell-based
[22] = test system: U-937; assay: Antiproliferative activity in human U937 cells after 72 hrs by CCK8 assay; assay type: functional; settings: U-937, 72 h
[23] = test system: MEG-01; assay: Induction of apoptosis in human MEG01 cells assessed as cleaved PARP level up to 0.3 uM after 24 hrs by immunoblotting analysis; assay type: functional, cell-based
[24] = test system: BaF3; assay: Induction of apoptosis in mouse BAF3 cells expressing BCR/ABL T315I mutant assessed as cleaved caspase-3 level up to 0.3 uM after 24 hrs by immunoblotting analysis; assay type: functional, cell-based
[25] = Selectivity ratio of GI50 for mouse BAF3 cells to GI50 for BCR/ABL T315I mutant (unknown origin) transfected in mouse BAF3 cells
[26] = AUC (0 to infinity) in mouse at 1 mg/kg, iv by LC-MS/MS analysis; assay type: ADME, organism-based; set-up: dose 1 mg/kg, route intravenous, time infinity; settings: in vivo
[27] = target: Tyrosine-protein kinase ABL1 (Homo sapiens, UniProt P00519); settings: BaF3
Description: Inhibition of wild type C-terminal FLAG-tagged human TEL fused ABL (unknown origin) transfected in mouse BAF3 cells assessed as growth inhibition after 72 hrs by CCK8 assay

[28] = target: T2, Tyrosine-protein kinase ABL1; assay: Inhibition of active wild type His-tagged ABL T315I mutant (229 to 500 residues) (unknown origin) expressed in baculovirus infected sf9 cells using ABLtide as substrate after 1 hr by ADP-Glo assay
[29] = target: T1, Bcr/Abl fusion protein (Homo sapiens); assay: Inhibition of BCR/ABL in human MEG01 cells assessed as inhibition of CrkL phosphorylation up to 0.3 uM after 1 hr by immunoblotting analysis; assay type: cell-based
[30] = test system: BaF3; assay: Antitumor activity against mouse BAF3 cells expressing BCR/ABL T315I mutant allografted in nu/nu mouse assessed as tumor growth inhibition at 50 mg/kg, po administered via gavage for 14 days relative to control; assay type: functional; settings: 336 h, read-out: TGI
[31] = target: Bcr/Abl fusion protein (Homo sapiens, UniProt P00519); assay: (§1) Inhibition of BCR/ABL in human MEG01 cells assessed as inhibition of BCR/ABL autophosphorylation at Y245 site after 1 hr by immunoblotting analysis; assay type: cell-based
[32] = target: T1, Bcr/Abl fusion protein (Homo sapiens); assay: as §1; assay type: cell-based
[33] = Tmax in Sprague-Dawley rat at 10 mg/kg, po by LC-MS/MS analysis; assay type: ADME, organism-based; settings: in vivo
[34] = AUC (0 to t) in Sprague-Dawley rat at 10 mg/kg, po by LC-MS/MS analysis; assay type: ADME, organism-based; settings: in vivo
[35] = MRT (0 to t) in mouse at 1 mg/kg, iv by LC-MS/MS analysis; assay type: ADME, organism-based; settings: in vivo
[36] = Half life in Sprague-Dawley rat at 10 mg/kg, po by LC-MS/MS analysis; assay type: ADME, organism-based; settings: in vivo
[37] = Apparent volume of distribution during terminal phase in Sprague-Dawley rat at 1 mg/kg, iv by LC-MS/MS analysis; assay type: ADME, organism-based; settings: in vivo, read-out: Vz

CN1CCN(Cc2ccc(NC(=O)CCSc3ccc4c(/C=C/c5ccccn5)n[nH]c4c3)cc2C(F)(F)F)CC1
Activity [1]: Active | GI50 [2]: 7 nM | TGI [3]: Dose-dependent effect | GI50 [4]: 1 nM | MRT last [5]: 4.4 h | GI50 at 72 h [6]: 1120 nM | Activity [7]: Active | GI50 [8]: 1050 nM | GI50 [9]: 500 nM | Tmax [10]: 1.2 min | inhibition [11]: Active | GI50 [12]: 1540 nM | inhibition [13]: Active | GI50 [14]: 36 nM | GI50 [15]: < 1 nM | GI50 [16]: 33 nM | inhibition [17]: Active | IC50 [18]: 0.2 nM | GI50 [19]: 2340 nM | AUC(0-inf) [20]: 202 ng·h/mL | inhibition [21]: Active | GI50 [22]: 780 nM | Activity [23]: Active | Activity [24]: Active | RatioGI50 [25]: 400 | AUC(0-inf) [26]: 160 ng·h/mL | GI50 [27]: < 1 nM | IC50 [28]: 0.2 nM | inhibition [29]: Active | inhibition in vivo at 50 mg/kg [30]: 52% | EC50 [31]: < 10 nM | inhibition [32]: Dose-dependent effect | Tmax [33]: 3.3 h | AUC(0-t) [34]: 210 ng·h/mL | MRT last [35]: 1.7 h | half-life [36]: 2.6 h | Vd [37]: 17.7 L/kg
